Inhibition data for 29 compounds are collected here from patent US9296746B2, “Heterocyclic compound” (TAKEDA PHARMACEUTICAL COMPANY LIMITED, priority 2012, dated 2016).

Structures are written as SMILES.

In the assay the target is T1, human CH24H (Homo sapiens, UniProt Q9Y6A2).
T1 construct: Using Full-Length Mammalian Gene Collection No. 4819975 (Invitrogen) as a template; made in house; host or cells: FreeStyle 293-F cells (transient transfection); cell lysate supernatant, not purified
T1 sequence (Q9Y6A2 whole entry): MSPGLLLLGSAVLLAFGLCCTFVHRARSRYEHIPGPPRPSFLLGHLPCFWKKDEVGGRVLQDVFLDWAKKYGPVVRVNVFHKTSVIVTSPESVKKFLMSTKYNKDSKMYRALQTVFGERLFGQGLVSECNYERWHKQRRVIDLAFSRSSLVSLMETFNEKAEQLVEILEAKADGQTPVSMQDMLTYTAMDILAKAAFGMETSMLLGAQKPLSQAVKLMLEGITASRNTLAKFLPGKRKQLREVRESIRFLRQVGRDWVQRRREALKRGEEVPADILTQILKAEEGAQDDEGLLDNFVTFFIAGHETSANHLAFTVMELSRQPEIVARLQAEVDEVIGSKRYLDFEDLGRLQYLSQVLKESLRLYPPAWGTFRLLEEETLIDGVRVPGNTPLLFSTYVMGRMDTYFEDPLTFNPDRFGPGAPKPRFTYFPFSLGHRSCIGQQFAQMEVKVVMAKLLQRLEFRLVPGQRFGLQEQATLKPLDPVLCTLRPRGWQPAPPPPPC
Kind of assay: Measurement of CH24H inhibitory activity (24-HC produced from [14C] cholesterol by human CH24H lysate). The note with it: test compound 1 μM, [14C] cholesterol 15 μM, 37° C., 5 hr, read-out: Inhibitory Rate (%) in 1 μM. The class given is biochemical. The method, then:
The expression of human CH24H was performed using FreeStyle 293 Expression System (Invitrogen). According to the manual attached to FreeStyle 293 Expression System and using the plasmid DNA for human CH24H expression (pcDNA3.1(+)/hCH24H) constructed in Experimental Example 1, a transient expression using FreeStyle 293-F cell was performed. After transfection, the cells were cultured at 37° C., 8% CO2 with shaking at 125 rpm for 2 days. The cells were collected by centrifugation, and suspended in a suspension buffer (100 mM potassium phosphate (pH 7.4), 0.1 mM EDTA, 1 mM DTT, 20% Glycerol). The suspended product was disrupted by a polytron homogenizer (manufactured by Kinematica), and centrifuged at 9000×g for 10 min, and the supernatant was collected. The collected supernatant was cryopreserved (−80° C.) as a human CH24H lysate standard product.
For the measurement of CH24H inhibitory activity, using the human CH24H lysate prepared in Experimental Example 2, the amount of 24-HC produced from cholesterol by catalytic activity of CH24H was measured in the presence of a test compound, and compared with that measured in the absence of the test compound. That is, a test compound solution at various concentrations was mixed with a reaction buffer (50 mM potassium phosphate containing 0.1% BSA and Complete, EDTA-free, pH 7.4) and human CH24H lysate. Then, [^14C] cholesterol (53 mCi/mmol specific activity, 15 μM) was added, and CH24H reaction was performed at 37° C. for 5 hr. After completion of the reaction, a quenching solution consisting of chloroform/methanol/distilled water (2:2:1 v/v) was added, and the resulting 24-HC was extracted by shaking. The extract was applied to silica gel thin layer chromatography (ethyl acetate:toluene=4:6), and the obtained ^14C-24HC fraction was measured with BAS2500 (Fujifilm Corporation).
The inhibitory rate (%) was calculated from the ratio of radioactivity in the presence of a test compound relative to the radioactivity in the absence of the test compound.
Consider `CCOC(=O)c1cnc2c(-c3cnco3)cc(C(F)(F)F)cn12` [Example 1, ethyl 8-(1,3-oxazol-5-yl)-6-(trifluoromethyl)imidazo[1,2-a]pyridine-3-carboxylate], for which the inhibition at 1 µM came to 86%.
Regarding `O=C(c1cnc2c(-c3cnco3)cc(C(F)(F)F)cn12)N1CCCC1` [Example 2, (8-(1,3-oxazol-5-yl)-6-(trifluoromethyl)imidazo[1,2-a]pyridin-3-yl)(pyrrolidin-1-yl)methanone], the inhibition at 1 µM was 89%.
As for `O=C(C1CC1)n1ccc2c(-c3cnco3)cc(C(F)(F)F)cc21` [Example 4, cyclopropyl(4-(1,3-oxazol-5-yl)-6-(trifluoromethyl)-1H-indol-1-yl)methanone], the figure is 88%; as for `O=C(c1cnc2c(-c3cnco3)cc(C(F)(F)F)cn12)N1CCOCC1` [Example 16, morpholin-4-yl(8-(1,3-oxazol-5-yl)-6-(trifluoromethyl)imidazo[1,2-a]pyridin-3-yl)methanone], 87%; as for `O=C(c1cnc2c(-c3cnco3)cc(C(F)(F)F)cn12)N1CC(F)(F)C1` [Example 21, (3,3-difluoroazetidin-1-yl)(8-(1,3-oxazol-5-yl)-6-(trifluoromethyl)imidazo[1,2-a]pyridin-3-yl)methanone], 99%.
In the case of `O=C(c1cnc2c(-c3cnco3)cc(C(F)(F)F)cn12)N1CC2(COC2)C1` [Example 22, 2-oxa-6-azaspiro[3.3]hept-6-yl(8-(1,3-oxazol-5-yl)-6-(trifluoromethyl)imidazo[1,2-a]pyridin-3-yl)methanone] it was 93%; in that of `O=C(NC1CCOCC1)c1cnc2c(-c3cnco3)cc(C(F)(F)F)cn12` [Example 44, 8-(1,3-oxazol-5-yl)-N-(tetrahydro-2H-pyran-4-yl)-6-(trifluoromethyl)imidazo[1,2-a]pyridine-3-carboxamide], 93%.
In the case of `CN(C(=O)c1cnc2c(-c3cnco3)cc(C(F)(F)F)cn12)C1CCOCC1` [Example 47, N-methyl-8-(1,3-oxazol-5-yl)-N-(tetrahydro-2H-pyran-4-yl)-6-(trifluoromethyl)imidazo[1,2-a]pyridine-3-carboxamide] it was 92%; in that of `O=C(c1nnc2c(-c3cnco3)cc(C(F)(F)F)cn12)N1C[C@@H]2C[C@H]1CO2` [Example 58, (1S,4S)-2-oxa-5-azabicyclo[2.2.1]hept-5-yl(8-(1,3-oxazol-5-yl)-6-(trifluoromethyl)[1,2,4]triazolo[4,3-a]pyridin-3-yl)methanone], 80%.
Consider `O=C(c1cnc2c(-c3cnco3)cc(C(F)(F)F)cn12)N1C[C@@H]2C[C@H]1CO2` [Example 71, (1S,4S)-2-oxa-5-azabicyclo[2.2.1]hept-5-yl(8-(1,3-oxazol-5-yl)-6-(trifluoromethyl)imidazo[1,2-a]pyridin-3-yl)methanone], for which the inhibition at 1 µM came out at 88%.
In the case of `O=C(Nc1ccccc1)c1cnc2c(-c3cnco3)cc(C(F)(F)F)cn12` [Example 74, 8-(1,3-oxazol-5-yl)-N-phenyl-6-(trifluoromethyl)imidazo[1,2-a]pyridine-3-carboxamide] it was 96%; in that of `Cc1cc(-c2cnco2)c2ncc(C(=O)N3C[C@@H]4C[C@H]3CO4)n2c1` [Example 78, (6-methyl-8-(1,3-oxazol-5-yl)imidazo[1,2-a]pyridin-3-yl)((1S,4S)-2-oxa-5-azabicyclo[2.2.1]hept-5-yl)methanone], 94%; in that of `O=C(c1cnc2c(-c3cnco3)cc(C(F)(F)F)cn12)N1C2COCC1C2` [Example 86, 3-oxa-6-azabicyclo[3.1.1]hept-6-yl(8-(1,3-oxazol-5-yl)-6-(trifluoromethyl)imidazo[1,2-a]pyridin-3-yl)methanone], 95%.
In the case of `O=C(c1cnc2c(-c3cnco3)cc(C(F)(F)F)cn12)N1CC[C@H](O)C1` [Example 87, ((3S)-3-hydroxypyrrolidin-1-yl)(8-(1,3-oxazol-5-yl)-6-(trifluoromethyl)imidazo[1,2-a]pyridin-3-yl)methanone] it was 94%.
In the case of `O=C(c1cnc2c(-c3cnco3)cc(C(F)(F)F)cn12)N1CC[C@H](OCC(F)F)C1` [Example 90, ((3S)-3-(2,2-difluoroethoxy)pyrrolidin-1-yl)(8-(1,3-oxazol-5-yl)-6-(trifluoromethyl)imidazo[1,2-a]pyridin-3-yl)methanone] it was 91%; in that of `O=C(c1cnc2c(-c3cnco3)cc(Cl)cn12)N1C[C@@H]2C[C@H]1CO2` [Example 92, (6-chloro-8-(1,3-oxazole-5-yl)imidazo[1,2-a]pyridin-3-yl)((1S,4S)-2-oxa-5-azabicyclo[2.2.1]hept-5-yl)methanone], 86%; in that of `O=C(c1cnc2c(-c3cnco3)cc(-c3cnco3)cn12)N1C[C@@H]2C[C@H]1CO2` [Example 93, (6,8-di(1,3-oxazol-5-yl)imidazo[1,2-a]pyridin-3-yl)((1S,4S)-2-oxa-5-azabicyclo[2.2.1]hept-5-yl)methanone], 68%.
`CCNC(=O)c1c(C)nc2c(-c3cnco3)cc(C(F)(F)F)cn12` [Example 98, N-ethyl-2-methyl-8-(1,3-oxazol-5-yl)-6-(trifluoromethyl)imidazo[1,2-a]pyridine-3-carboxamide]: the inhibition at 1 µM came out at 69%.
As for `O=C(NCc1ccccc1)c1nnc2c(-c3cnco3)cc(C(F)(F)F)cn12` [Example 107, N-benzyl-8-(1,3-oxazol-5-yl)-6-(trifluoromethyl)[1,2,4]triazolo[4,3-a]pyridine-3-carboxamide], the figure is 89%.
In the case of `O=C(c1cnc2c(-c3cnco3)cc(C3CC3)cn12)N1C[C@@H]2C[C@H]1CO2` [Example 116, (6-cyclopropyl-8-(1,3-oxazol-5-yl)imidazo[1,2-a]pyridin-3-yl)((1S,4S)-2-oxa-5-azabicyclo[2.2.1]hept-5-yl)methanone] it was 90%; in that of `Cc1cc(-c2cnco2)n2ncc(C(=O)N3C[C@@H]4C[C@H]3CO4)c2c1` [Example 126, (5-methyl-7-(1,3-oxazol-5-yl)pyrazolo[1,5-a]pyridin-3-yl)((1S,4S)-2-oxa-5-azabicyclo[2.2.1]hept-5-yl)methanone], 93%.
In the case of `O=C(c1cnc2c(-n3cncn3)cc(C(F)(F)F)cn12)N1C[C@@H]2C[C@H]1CO2` [Example 128, (1S,4S)-2-oxa-5-azabicyclo[2.2.1]hept-5-yl(8-(1H-1,2,4-triazol-1-yl)-6-(trifluoromethyl)imidazo[1,2-a]pyridin-3-yl)methanone] it was 86%; in that of `O=C(c1cnc2c(-c3cn[nH]c3)cc(C(F)(F)F)cn12)N1C[C@@H]2C[C@H]1CO2` [Example 134, (1S,4S)-2-oxa-5-azabicyclo[2.2.1]hept-5-yl(8-(1H-pyrazol-4-yl)-6-(trifluoromethyl)imidazo[1,2-a]pyridin-3-yl)methanone], 71%.
Consider `O=C(c1cnc2c(-c3cnco3)cc(F)cn12)N1C2CCC1COC2` [Example 138, (6-fluoro-8-(1,3-oxazol-5-yl)imidazo[1,2-a]pyridin-3-yl)(3-oxa-8-azabicyclo[3.2.1]oct-8-yl)methanone], for which the inhibition at 1 µM is 82%.
In the case of `O=C(c1cnc2c(-n3cncn3)cc(C(F)(F)F)cn12)N1C2CCC1COC2` [Example 142, 3-oxa-8-azabicyclo[3.2.1]oct-8-yl(8-(1H-1,2,4-triazol-1-yl)-6-(trifluoromethyl)imidazo[1,2-a]pyridin-3-yl)methanone] it was 87%.
As to `O=C(c1cnc2c(-c3cnco3)cc(C3CC3)cn12)N1C2CCC1COC2` [Example 143, (6-cyclopropyl-8-(1,3-oxazol-5-yl)imidazo[1,2-a]pyridin-3-yl)(3-oxa-8-azabicyclo[3.2.1]oct-8-yl)methanone], the inhibition at 1 µM came to 91%.
In the case of `CC(=O)c1cc(-c2cnco2)c2ncc(C(=O)N3C[C@@H]4C[C@H]3CO4)n2c1` [Example 155, 1-(3-((1S,4S)-2-oxa-5-azabicyclo[2.2.1]hept-5-ylcarbonyl)-8-(1,3-oxazol-5-yl)imidazo[1,2-a]pyridin-6-yl)ethanone], the inhibition at 1 µM was found to be 84%.
In the case of `O=C(c1cnc2c(-n3cncn3)cc(C(F)(F)F)cn12)N1C2COCC1C2` [Example 156, 3-oxa-6-azabicyclo[3.1.1]hept-6-yl(8-(1H-1,2,4-triazol-1-yl)-6-(trifluoromethyl)imidazo[1,2-a]pyridin-3-yl)methanone] it was 94%; in that of `O=C(c1cnc2c(-c3cnco3)cc(C(F)F)cn12)N1C[C@@H]2C[C@H]1CO2` [Example 171, (6-(difluoromethyl)-8-(1,3-oxazol-5-yl)imidazo[1,2-a]pyridin-3-yl)((1S,4S)-2-oxa-5-azabicyclo[2.2.1]hept-5-yl)methanone], 91%.
